Laboratory results reported in US11548868B2, “Heterocyclic compounds, compositions comprising heterocyclic compound, and methods of use thereof” (JS INNOPHARM (SHANGHAI) LTD, priority 2017, dated 2023).
pIC50: −log10 of the molar value.

How the values were obtained:
[1] = target: T1, TDO2 in A172 cancer cells (Homo sapiens, UniProt P48775); experiment: TDO2 Cellular Assay (kynurenine production in A172 cancer cells); assay type: cell-based; conditions: L-Trp 1 mM, 24 hours incubation, kynurenine at 490 nm
T1 construct: endogenous in cells; host or cells: A172 cancer cells
T1 sequence (P48775 whole entry): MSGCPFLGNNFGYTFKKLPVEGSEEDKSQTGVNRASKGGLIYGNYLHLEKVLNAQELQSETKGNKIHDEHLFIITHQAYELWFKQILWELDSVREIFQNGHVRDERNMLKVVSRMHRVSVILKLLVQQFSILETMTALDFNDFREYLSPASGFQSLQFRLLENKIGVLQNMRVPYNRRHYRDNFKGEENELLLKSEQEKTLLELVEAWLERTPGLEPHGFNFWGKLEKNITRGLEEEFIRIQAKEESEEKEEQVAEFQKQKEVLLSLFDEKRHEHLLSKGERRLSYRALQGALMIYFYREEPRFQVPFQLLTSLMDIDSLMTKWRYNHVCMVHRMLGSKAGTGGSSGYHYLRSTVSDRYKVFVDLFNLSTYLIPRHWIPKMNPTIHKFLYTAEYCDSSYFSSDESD
Method in brief: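 A172 cells seeded overnight, then given 1 mM L-Trp and test compound (0–25 μM, 0.25% DMSO) for 24 h at 37 °C. Supernatant treated with TCA at 50 °C to convert N-formylkynurenine, kynurenine detected with p-dimethylaminobenzaldehyde at 490 nm; IC50 by non-linear regression of inhibition versus DMSO control.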

[2] = target: T2, IDO1 in Hela cancer cells (Homo sapiens, UniProt P14902); experiment: IDO1 Cellular Assay (kynurenine production in IFN-γ stimulated Hela cancer cells); assay type: cell-based; conditions: human IFN-γ 50 ng/mL, 48 hours incubation, kynurenine at 490 nm
T2 construct: endogenous in cells; host or cells: Hela cancer cells stimulated with human IFN-γ
T2 sequence (P14902 whole entry): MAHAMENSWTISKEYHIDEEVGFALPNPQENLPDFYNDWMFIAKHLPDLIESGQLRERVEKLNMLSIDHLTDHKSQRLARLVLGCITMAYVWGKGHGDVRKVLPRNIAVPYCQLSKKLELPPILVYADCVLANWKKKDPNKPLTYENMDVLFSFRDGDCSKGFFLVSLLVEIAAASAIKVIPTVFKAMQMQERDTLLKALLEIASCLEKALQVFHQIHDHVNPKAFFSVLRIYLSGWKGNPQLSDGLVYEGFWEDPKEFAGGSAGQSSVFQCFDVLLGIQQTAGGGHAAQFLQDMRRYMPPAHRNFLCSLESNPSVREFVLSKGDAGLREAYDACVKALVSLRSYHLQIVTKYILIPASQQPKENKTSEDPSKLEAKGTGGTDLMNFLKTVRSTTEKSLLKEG
Method in brief: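 HeLa cells stimulated with 50 ng/mL IFN-γ (final) and treated 48 h with compound (0–25 μM final, 0.25% DMSO). Supernatant kynurenine measured after TCA hydrolysis and p-dimethylaminobenzaldehyde reaction at 490 nm; inhibition vs DMSO control, IC50 by non-linear regression.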

| pIC50 [1] | pIC50 [2] | SMILES |
| --- | --- | --- |
| 5.30 to 6.00 | < 5.30 | CNC(=O)N[C@H]1[C@@H]2C[C@@](O)(c3cc(Cl)cc4cn[nH]c34)C[C@@H]21 [Example 133, 1-((1R,3r,5S,6r)-3-(5-chloro-1H-indazol-7-yl)-3-hydroxybicyclo[3.1.0]hexan-6-yl)-3-methylurea] |
| ≥ 6.30 | 5.30 to 6.00 | O=C(c1nc2cc(Cl)ccc2[nH]1)N1C[C@@H]2C[C@@](O)(c3cc(Cl)cc4[nH]ncc34)C[C@@H]2C1 [Example 134, (5-chloro-1H-benzo[d]imidazol-2-yl)((3aR,5r,6aS)-5-(6-chloro-1H-indazol-4-yl)-5-hydroxyhexahydrocyclopenta[c]pyrrol-2(1H)-yl)methanone] |
| ≥ 6.30 | < 5.30 | NC(=O)N[C@H]1[C@@H]2C[C@@](O)(c3cc(Cl)cc4[nH]ncc34)C[C@@H]21 [Example 135, 1-((1R,3r,5S,6r)-3-(6-chloro-1H-indazol-4-yl)-3-hydroxybicyclo[3.1.0]hexan-6-yl)urea] |
| ≥ 6.30 | 5.30 to 6.00 | O=C(N[C@H]1[C@@H]2C[C@@](O)(c3cc(Cl)cc4[nH]ncc34)C[C@@H]21)c1nc2cc(Cl)ccc2[nH]1 [Example 136, 5-chloro-N-((1R,3r,5S,6r)-3-(6-chloro-1H-indazol-4-yl)-3-hydroxybicyclo[3.1.0]hexan-6-yl)-1H-benzo[d]imidazole-2-carboxamide] |
| ≥ 6.30 | 5.30 to 6.00 | N#CCC(=O)N[C@H]1[C@@H]2C[C@@](O)(c3cc(Cl)cc4[nH]ncc34)C[C@@H]21 [Example 137, N-((1R,3r,5S,6r)-3-(6-chloro-1H-indazol-4-yl)-3-hydroxybicyclo[3.1.0]hexan-6-yl)-2-cyanoacetamide] |
| ≥ 6.30 | < 5.30 | O=C(CC(F)(F)F)N[C@H]1[C@@H]2C[C@@](O)(c3cc(Cl)cc4[nH]ncc34)C[C@@H]21 [Example 138, N-((1R,3r,5S,6r)-3-(6-chloro-1H-indazol-4-yl)-3-hydroxybicyclo[3.1.0]hexan-6-yl)-3,3,3-trifluoropropanamide] |
| ≥ 6.30 | 6.00 to 6.30 | O=S(=O)(CC(F)(F)F)N[C@H]1[C@@H]2C[C@@](O)(c3cc(Cl)cc4[nH]ncc34)C[C@@H]21 [Example 139, N-((1R,3r,5S,6r)-3-(6-chloro-1H-indazol-4-yl)-3-hydroxybicyclo[3.1.0]hexan-6-yl)-2,2,2-trifluoroethanesulfonamide] |
| ≥ 6.30 | ≥ 6.30 | NS(=O)(=O)N[C@H]1[C@@H]2C[C@@](O)(c3cc(Cl)cc4[nH]ncc34)C[C@@H]21 [Example 140, N-((1R,3r,5S,6r)-3-(6-chloro-1H-indazol-4-yl)-3-hydroxybicyclo[3.1.0]hexan-6-yl)sulfuric diamide] |
| 6.00 to 6.30 | < 5.30 | CS(=O)(=O)Nc1cccc(C(=O)N[C@H]2[C@@H]3C[C@@](O)(c4cc(Cl)cc5[nH]ncc45)C[C@@H]32)c1 [Example 141, N-((1R,3r,5S,6r)-3-(6-chloro-1H-indazol-4-yl)-3-hydroxybicyclo[3.1.0]hexan-6-yl)-3-(methylsulfonamido)benzamide] |
| ≥ 6.30 | ≥ 6.30 | O=C(N[C@H]1[C@@H]2C[C@@](O)(c3cc(Cl)cc4[nH]ncc34)C[C@@H]21)c1cccc(C(F)(F)F)c1 [Example 142, N-((1R,3r,5S,6r)-3-(6-chloro-1H-indazol-4-yl)-3-hydroxybicyclo[3.1.0]hexan-6-yl)-3-(trifluoromethyl)benzamide] |
| ≥ 6.30 | ≥ 6.30 | O=C(N[C@H]1[C@@H]2C[C@@](O)(c3cc(Cl)cc4[nH]ncc34)C[C@@H]21)c1cccc(F)c1 [Example 143, N-((1R,3r,5S,6r)-3-(6-chloro-1H-indazol-4-yl)-3-hydroxybicyclo[3.1.0]hexan-6-yl)-3-fluorobenzamide] |
| ≥ 6.30 | ≥ 6.30 | N#Cc1cccc(C(=O)N[C@H]2[C@@H]3C[C@@](O)(c4cc(Cl)cc5[nH]ncc45)C[C@@H]32)c1 [Example 144, N-((1R,3r,5S,6r)-3-(6-chloro-1H-indazol-4-yl)-3-hydroxybicyclo[3.1.0]hexan-6-yl)-3-cyanobenzamide] |
| ≥ 6.30 | ≥ 6.30 | O=C(N[C@H]1[C@@H]2C[C@@](O)(c3cc(Cl)cc4[nH]ncc34)C[C@@H]21)c1cccc(OC(F)(F)F)c1 [Example 145, N-((1R,3r,5S,6r)-3-(6-chloro-1H-indazol-4-yl)-3-hydroxybicyclo[3.1.0]hexan-6-yl)-3-(trifluoromethoxy)benzamide] |
| ≥ 6.30 | ≥ 6.30 | O=C(N[C@H]1[C@@H]2C[C@@](O)(c3cc(Cl)cc4[nH]ncc34)C[C@@H]21)c1cccc(Br)c1 [Example 146, 3-bromo-N-((1R,3r,5S,6r)-3-(6-chloro-1H-indazol-4-yl)-3-hydroxybicyclo[3.1.0]hexan-6-yl)benzamide] |
| ≥ 6.30 | 5.30 to 6.00 | O=C(Nc1ccc(F)cc1)N[C@H]1[C@@H]2C[C@@](O)(c3cc(Cl)cc4[nH]ncc34)C[C@@H]21 [Example 147, 1-((1R,3r,5S,6r)-3-(6-chloro-1H-indazol-4-yl)-3-hydroxybicyclo[3.1.0]hexan-6-yl)-3-(4-fluorophenyl)urea] |
| ≥ 6.30 | ≥ 6.30 | O=C(N[C@H]1[C@@H]2C[C@@](O)(c3cc(Cl)cc4[nH]ncc34)C[C@@H]21)c1cccnc1 [Example 148, N-((1R,3r,5S,6r)-3-(6-chloro-1H-indazol-4-yl)-3-hydroxybicyclo[3.1.0]hexan-6-yl)nicotinamide] |
| ≥ 6.30 | ≥ 6.30 | O=C(Cc1ccc(Cl)cc1)N[C@H]1[C@@H]2C[C@@](O)(c3cc(Cl)cc4[nH]ncc34)C[C@@H]21 [Example 149, N-((1R,3r,5S,6r)-3-(6-chloro-1H-indazol-4-yl)-3-hydroxybicyclo[3.1.0]hexan-6-yl)-2-(4-chlorophenyl)acetamide] |
| ≥ 6.30 | ≥ 6.30 | O=C(N[C@H]1[C@@H]2C[C@@](O)(c3cc(Cl)cc4[nH]ncc34)C[C@@H]21)c1ccc(F)c(Cl)c1 [Example 150, 3-chloro-N-((1R,3r,5S,6r)-3-(6-chloro-1H-indazol-4-yl)-3-hydroxybicyclo[3.1.0]hexan-6-yl)-4-fluorobenzamide] |
| ≥ 6.30 | 5.30 to 6.00 | CC(=O)Nc1cccc(C(=O)N[C@H]2[C@@H]3C[C@@](O)(c4cc(Cl)cc5[nH]ncc45)C[C@@H]32)c1 [Example 151, 3-acetamido-N-((1R,3r,5S,6r)-3-(6-chloro-1H-indazol-4-yl)-3-hydroxybicyclo[3.1.0]hexan-6-yl)benzamide] |
| ≥ 6.30 | 6.00 to 6.30 | O=C(N[C@H]1[C@@H]2C[C@@](O)(c3cc(Cl)cc4[nH]ncc34)C[C@@H]21)c1cc(F)cc(Cl)c1 [Example 152, 3-chloro-N-((1R,3r,5S,6r)-3-(6-chloro-1H-indazol-4-yl)-3-hydroxybicyclo[3.1.0]hexan-6-yl)-5-fluorobenzamide] |
| ≥ 6.30 | 5.30 to 6.00 | CS(=O)(=O)c1cccc(C(=O)N[C@H]2[C@@H]3C[C@@](O)(c4cc(Cl)cc5[nH]ncc45)C[C@@H]32)c1 [Example 153, N-((1R,3r,5S,6r)-3-(6-chloro-1H-indazol-4-yl)-3-hydroxybicyclo[3.1.0]hexan-6-yl)-3-(methylsulfonyl)benzamide] |
